# According to US20140315972A1, “RS)-2-(2-oxo-4-phenylpyrrolidin-1-yl)acetamide compound having modulatory activity with a commensurate effect, pharmaceutical substance (variants) and its application, composition (variants) thereof” (priority 2011, published 2014):
# Marks after values point to notes of the source that are not given here.
# Columns and labels:
# mice [1] = assay: Fertility of female mice aged 510 days; format: in vivo
# Method: Investigation of the effect of Phenotropil on the fertility of mice was performed in the spring period in females aged 510 days (30 animals per group). Termination of the reproductive age was established by placing every three females to a fertile male. Mating was determined by the presence of vaginal plugs. Females not mated during one month were included in the study. Throughout the entire study period (32 days), Phenotropil was administered one time per day intragastrically to the experimental group in a dose of 100 mg/kg with distilled water; the control animals received distilled water. On the eighth day of the experiment, the females were introduced to males in the following combination: two experimental and one control animal or […]. The procedure was repeated for females not covered at each stage. The same fertile males were not used for mating.
# mice [2] = assay: Maximum life span (MLS) of mice; format: in vivo; conditions: for The maximum life span (number of days in %): mice, change vs untreated control = 100
# Method: The maximum life span (MLS) of mice according to our long-term statistical observations is 2.7-3, 2 years, i.e. in average 2.95 years or 1077 days. For this study we selected mice (10 individuals per group), males with dominant behavior in mixed groups, that safely survived to 985 days without signs of pronounced senility and with satisfactory orientation-exploratory behavior, determined by the “open field test” method. Phenotropil in doses of 25, 50 and 100 mg/kg was administered orally with 5.0% glucose solution. Glucose solution was used solely to improve the solubility of the drug. One control group received the glucose solution and the second one—distilled water. The third control group was not treated.
# cortisol = assay: Plasma cortisol level (Tsf-activity) in August and Wistar rats; format: in vivo; conditions: for Tsf-activity by cortisol at 3 hours vs control / plasma cortisol at 60 min / Tsf-activity by cortisol at 60 min vs control: i.p. 1.0-750 mg/kg, averaged
# [3] = system: mycobacteria (MTB), strain H37Rv; assay: Mycobacteria (MTB) culture growth in vitro; format: cell-based
# Method: The presence of the proper anti-inflammatory effect in Phenotropil formed the basis for investigation of the effect of the drug on more complex pathological agents. The effect of different concentrations of Phenotropil on the mycobacteria (MTB) culture growth in vitro according to research standards (test culture—highly virulent laboratory strain H37Rv) was studied. A wide range of drug concentrations was prepared: 1 series—100, 50, 10 μg/ml, 2 series—from 10 to 0.31 μg/ml, and 3 series—from 2 to 0.031 μg/ml. To prepare the matrix solution, the sterile distilled water was used, and the Shkolnikova medium was used to prepare the said concentrations. To assess the growth and morphological properties of the MTB culture, suspended mycobacteria at appropriate concentrations of Phenotropil solution were inoculated on the Lowenstein-Jensen medium and Shkolnikova medium (4 tubes for each point). After 2 weeks, the presence of growth was determined visually in the Shkolnikova medium and smears from the sediment were prepared. The smears were fixed and stained according to Ziehl-Neelsen method. The number of mycobacteria in smears was counted and, based on the results obtained, the concentration of the drug at which the inhibition of the growth was observed was determined. The number of the MTB colonies and their morphological characteristics were evaluated on the Lowenstein-Jensen medium after four weeks from the time of inoculation. Registration of the results was also carried out four weeks after inoculation.
# rats = assay: Forced swimming with freely rotating wheels by Nomura; format: in vivo; conditions: rat pups
# Method: The antidepressant effect of Phenotropil was studied in adult rats (185-218 g) and rat pups of 28-35 days of age (85-110 g). The test drugs were injected intraperitoneally in the first case and intragastrically in the second case 40 min before the tests. The methods of behavioral despair during forced swimming (Porsolt et al., 1978) and forced swimming with freely rotating wheels (Nomura et al., 1982) were used.
# In the study of depression by Porsolt, no significant differences between the effective doses were found (Table 10), while according to the method of Nomura this difference is statistically significant. At a dose of 100 mg/kg, the efficacy of Phenotropil as compared to the control, was 59.0%. At a dose of 200 mg/kg it was +30.0% in comparison with the control group (Table 10.1). […] The effect of Phenotropil was investigated by the method of Nomura also in mature outbred rats (185-218 g).
# mice [4] = assay: Average life duration (ALD) of mice; format: in vivo
# cAMP = cAMP level in functional dysmenorrhea patients; format: in vivo, human; conditions: for cAMP level / cAMP level, change in % (vs background dysmenorrhea): human plasma, primary dysmenorrhoea, first phase of the cycle
# Method: Investigation of the effect of Phenotropil in amenorrhea and functional dysmenorrhea was conducted on groups of patients aged 14-27 years. The first group (20-27 years) diagnosed with schizophrenia, was on the maintenance neuroleptic therapy and had menstrual cycle irregularities in the form of amenorrhea (for more than 6 months). Of those, 4 had amenorrhea of not established nature, observed also prior to the pronounced primary manifestation of mental disorder, 6 patients had amenorrhea that developed during treatment with neuroleptics. Phenotropil, tablets was administered in doses of 100 mg and 200 mg per day as part of a complex antipsychotic therapy as a corrector of psychogenic side effects of neuroleptics. The dose was selected based on the individual and clinical features of the patients. The duration of Phenotropil therapy was 3 months. Two groups (14-18 years) with functional dysmenorrhea and manifestations of pronounced spastic symptoms were studied. Duration of the Phenotropil monotherapy (50 and 100 mg per day) was one month followed by administration of the drug at one-week courses as a preventive agent. Patients with functional dysmenorrhea were investigated for cAMP level in comparison with the norm control group. The cAMP level was determined using the standard kits, by the method based on the competition with the labeled cyclic 3′,5-adenosine monophosphate in the level of binding with […].
# [5] = 100 mg/kg i.g. daily, by the morning of day 9
smiles,measurement,setting,value
"NC(=O)CN1CC(c2ccccc2)CC1=O (racemic) [Compound 1, (RS)-2-(2-oxo-4-phenylpyrrolidine-1-yl)acetamide]",females left uncovered (of 30),"mice [1]; 100 mg/kg i.g. daily, after 32 days",6
same,females covered (of 30),mice [1]; [5],9
same,"females covered, % of the total number in the group",mice [1]; [5],30.0%
same,females covered (of 30),"mice [1]; 100 mg/kg i.g. daily, by the morning of day 17",11
same,females covered (of 30),"mice [1]; 100 mg/kg i.g. daily, by the morning of day 25",4
same,Fertility (% of animals in the group),"mice [1]; mice, 100 mg/kg",80.0 * %
same,increase of maximum life span,mice [2]; 25 mg/kg,23.3%
same,increase of maximum life span,mice [2]; 100 mg/kg,24.0%
same,"increase of life span, average of all experimental groups","mice [2]; male mice aged 985 days, 25, 50, 100 mg/kg orally",22.0%
same,The maximum life span (number of days in %),mice [2]; 25 mg/kg + 5.0% glucose solution,+20.1 * %
same,The maximum life span (number of days in %),mice [2]; 50 mg/kg + 5.0% glucose solution,+15.0 * %
same,The maximum life span (number of days in %),mice [2]; 100 mg + 5.0% glucose solution,+20.8 * %
same,Tsf-activity by cortisol at 3 hours vs control,cortisol; August rats,+6.8%
same,plasma cortisol at 60 min,cortisol; August rats,45.6 ± 4.1 nmol/L
same,Tsf-activity by cortisol at 60 min vs control,"cortisol; August rats, listed as (RS)-2-(2-oxo-4-phenylpyrrolidin-1-yl)acetamide",+14.1%
same,Tsf-activity by cortisol at 60 min vs control,"cortisol; August rats, listed as Phenotropil",+14.1* %
same,modulation factor change compared to the control,"cortisol; August rats, single dose",−11.5%
same,Tsf-activity by cortisol at 3 hours vs control,cortisol; Wistar rats,−7.6%
same,plasma cortisol at 60 min,cortisol; Wistar rats,50.9 ± 4.4 nmol/L
same,Tsf-activity by cortisol at 60 min vs control,"cortisol; Wistar rats, listed as (RS)-2-(2-oxo-4-phenylpyrrolidin-1-yl)acetamide",+2.0%
same,"biologically active dose (reliable effect on plasma cortisol), starting from","cortisol; rats, i.p., range tested 0.5-750.0 mg/kg",≥ 1.0 mg/kg
same,Mean number of MTB colonies,[3]; 0.031 ug/ml,contiguous
same,Mean number of MTB colonies,[3]; 0.063 ug/ml,contiguous
same,Mean number of MTB colonies,[3]; 0.125 ug/ml,107
same,Mean number of MTB colonies,[3]; 0.250 ug/ml,97
same,Mean number of MTB colonies,[3]; 0.310 ug/ml,83
same,Mean number of MTB colonies,[3]; 0.500 ug/ml,70
same,Mean number of MTB colonies,[3]; 0.630 ug/ml,65
same,Mean number of MTB colonies,[3]; 1.0 ug/ml,67
same,Mean number of MTB colonies,[3]; 1.25 ug/ml,74
same,Mean number of MTB colonies,[3]; 2.0 ug/ml,79
same,Mean number of MTB colonies,[3]; 5.0 ug/ml,90
same,Mean number of MTB colonies,[3]; 10.0 ug/ml,123
same,Mean number of MTB colonies,[3]; 50.0 ug/ml,contiguous
same,Mean number of MTB colonies,[3]; 100 ug/ml,contiguous
same,number of MTB colonies,[3]; concentrations from 0.25 to 5.0 μg/ml,Less than 100
same,Number of revolutions,rats; 100 mg/kg,175.4 ± 22.98
same,Number of revolutions,rats; 200 mg/kg,143.4 ± 33.14
same,ALD increase vs placebo-treated control,mice [4]; 50 mg/kg,15.3%
same,ALD increase vs placebo-treated control,mice [4]; 100 mg/kg,29.3%
same,ALD increase vs placebo-treated control,mice [4]; 200 mg/kg,12.5%
same,ALD increase vs placebo-treated control,mice [4]; 300 mg/kg,19.6%
same,increase in life duration,mice [4]; doses below 50.0 mg/kg,8.0-10.0%
same,effect of course use on serum cAMP,"cAMP; functional dysmenorrhoea, monotherapy 50 and 100 mg per day, 30 days",restored the functional norm of cAMP indicators
same,cAMP level,cAMP; dose 50 mg,14.35 ± 0.87 nmol/L
same,"cAMP level, change in % (vs background dysmenorrhea)",cAMP; dose 50 mg,−32%
same,cAMP level,cAMP; dose 100 mg,12.77 ± 1.24 nmol/L
same,"cAMP level, change in % (vs background dysmenorrhea)",cAMP; dose 100 mg,−39%
